The numbers were not newly measured in patent publication US20090291152A1, “DIBENZOTHIAZEPINE DERIVATIVES” (Concert Pharmaceuticals Inc., priority 2006, published 2009), which cites them from elsewhere.

For data set [1] the following is noted: majority of the metabolites.
The conditions of data set [2]: patients with hepatic impairment.

On to `OCCOCCN1CCN(C2=Nc3ccccc3Sc3ccccc32)CC1` [quetiapine, 11-[4-[2-(2-Hydroxyethoxy)ethyl]piperazin-1-yl]dibenzo[b,f][1,4]thiazepine], for which the “metabolites excreted in the urine” value in data set [1] is given as 73%. Further, in data set [2], the “increase in AUC” value was 3 fold and the “increase in Cmax” value is on record as 3 fold.
